“Also recorded” adds a separate entry of the source.

Data on two compounds can be found in patent US20160303068A1, “Compositions and Methods For Treating Brain Injury and Brain Diseases” (University of Washington through its Center for …, priority 2013, published 2016).

Data set [1] relates to AD transgenic mouse models. The conditions noted are these: in vivo; cited from earlier work.
Data set [2] can be described thus: [3H] paclitaxel distribution in brain via intranasal administration. Format: in vivo, male CD-1 mice. The conditions noted are these: 1 μCi [3H] paclitaxel in 1 μl PBS to the right nares. How it is done: FIGS. 4 A and 4B are graphs showing [^3H] paclitaxel distribution via intranasal administration in male CD-1 mice, 8 weeks, after administration of 1 μCi of [^3H] paclitaxel in 1 μl PBS to the right nares;
FIGS. 4A and 4B show distribution of a taxane (paclitaxel) in the brain, when the taxane is administered intranasally. […] Thus, the intranasally administered taxane can bypass the blood-brain barrier (BBB) via the olfactory epithelium, and thereby provide therapeutic effect to a subject. The treatment methods can advantageously administer drug to the brain (e.g., an injured area of the brain) while minimizing side effects in non-target organs. The methods can have widespread applications. For example, intranasal administration of taxanes can result in decreased neuroinflammation, and can therefore be used in treatment of neuroinflammatory conditions, such as neurodegenerative diseases including Alzheimer's disease and related tauopathies, multiple sclerosis, viral infections, Parkinson's disease, as well as head trauma and mild concussions.

For data set [3], the system named is rodent model of traumatic brain injury. The data set is described as follows: MRI (T1-weighted, quantitative T2 maps) of injury volume and edema after controlled cortical impact. Format: in vivo, C57BL6 mice. How it is done:
(§1) Rodent subjects (C57BL6 mice, 10 wks, male, n=12) had craniotomy over the right frontoparietal cortex of 5 mm, plus mild controlled cortical impact (CCI) surgery using a pneumatic impactor (AmScien Instruments, Richmond, Va.) at 6 m/s strike velocity, 1 mm depth of penetration, and 150 ms contact time, under isoflurane anesthesia. Immediately following CCI, 200 ug/kg paclitaxel (n=6) or vehicle (n=6) was applied to the brain injury site. Sham surgery (craniotomy, but no CCI) was performed on controls (n=3).
(§2) At 2 days post-surgery, gait assessment of the subjects was conducted using CatWalk automated gait analysis (Noldus Information Tech, The Netherlands) followed by high-tesla magnetic resonance imaging (14T MR Avance III Ultrashield, Bruker BioSpin, Billerica, Mass.). T1-weighted and quantitative T2 maps were obtained: MDEFT (3D modified driven equilibrium Fourier transform), […]: 12°, TR (repetition time): 5000 ms, TE (echo time): 1.9ms, resolution 0.140×0.140×0.25 mm^3, 64 slices; T2 map: TR=2000 ms, 16 echoes, spacing:6.7 ms, TE1: 6.7 ms, TE 2:13.4 ms, resolution 0.12×0.12×1.0 mm^3, 15 slices. Manual volume of interest (VOI) analysis of injury volume and volume of edema related to injury was performed.

For data set [4] the test system is unchanged. Description: Macromolecular proton fraction (MPF) imaging of myelin density adjacent to injury after CCI. Format: in vivo, C57BL6 mice. How it is done: as §1
Macromolecular proton fraction (MPF) imaging is a quantitative magnetic resonance technique that measures the magnetization transfer between protons bound to water and protons bound to macromolecules. MPF imaging was performed to evaluate myelin degradation adjacent to injury. […] Mean myelin density was calculated for a region of interest (circular region having a diameter of […]) that was larger than the actual injury (1.5 mm).

Data set [5] shares this test system. Description: CatWalk automated gait analysis after CCI. Format: in vivo, C57BL6 mice. How it is done:
as §1, §2

For data set [6] the test system is unchanged. Description: Fractional anisotropy imaging of external capsule integrity after CCI. Format: in vivo, C57BL6 mice. The conditions noted are these: following CCI; paclitaxel not intranasally administered. How it is done:
as §1
The MPF results were corroborated using cross-relaxation imaging. Cross-relaxation imaging (CRI) is a quantitative magnetic resonance technique that measures the kinetic parameters of magnetization transfer between protons bound to water and protons bound to macromolecules. Here, in vivo, four-parameter CRI of normal rat brains (n=5) at 3.0 T was first directly compared to histology. The bound pool fraction, f, was strongly associated with myelin density (Pearson's r=0.99, p<0.001). The correlation persisted in separate analyses of gray matter (GM; r=0.89, p=0.046) and white matter (WM; r=0.97, p=0.029). The CRI results validated the MPF results, in that the taxane helped to preserve myelin density around the injury. Fractional anisotropy imaging was carried out to evaluate the integrity of underlying external capsule. […]

A further data set relates to 3×Tg-AD mice. The data set is described as follows: Manganese-enhanced MRI (MEMRI) of axonal transport rates in the olfactory tract, 3×Tg-AD mice. Format: in vivo. As to conditions: intranasal 0.6 mg/kg, vs saline or young wild-type controls. The text has this: MRI: Mice are anesthetized with isoflurane and scanned on an ultra-high resolution 14T MRI (Avance III, Bruker BioSpin Corp, Billerica, Mass.). Dynamic manganese enhanced magnetic resonance imaging (dyMEMRI): Mice are anesthetized with isoflurane and administered a unilateral injection of Sul of 1 M MnCl2 intranasally (with occlusion to block septal window). Parameters for magnetization prepared rapid gradient echo (MPRAGE) (TR/TE=11/5.3 ms; Ti=1000 ms; FA=9 deg acquired matrix 108×108 mm over 55 slices, voxel 0.2×0.2×0.4 mm3 interpolated to 0.1×0.1×0.2 mm3). […] MicroPET: Metabolic brain activity is assessed using FDG-PET performed under isoflurane anesthesia with 30 min uptake after 250 μCi intraperitoneal injection of FDG. […]
The effect of intra-nasal treatment of taxanes on the development of neurodegenerative pathology in a model of Alzheimer's disease was also studied. […] Treatment effectiveness was assessed with the same outcome measures as described in Example 1.
(§3) Intranasal paclitaxel (Hospira, Inc., Lake Forest, Ill.) was administered to 3×Tg-AD mice (0.6 mg/kg in 0.9 percent saline, […] per nostril). […] Dynamic T1-weighted MR imaging detected signal enhancement and post-processing algorithms calculate a relative rate of transport. […]

A further data set has as its system wild-type mice. Description: Manganese-enhanced MRI (MEMRI) of axonal transport rates, wild-type mice. The conditions noted are these: wild-type mice treated with paclitaxel vs young wild-type controls, p≦0.01. Format: in vivo.
Description: MRI: Mice are anesthetized with isoflurane and scanned on an ultra-high resolution 14T MRI (Avance III, Bruker BioSpin Corp, Billerica, Mass.). Dynamic manganese enhanced magnetic resonance imaging (dyMEMRI): Mice are anesthetized with isoflurane and administered a unilateral injection of Sul of 1 M MnCl2 intranasally (with occlusion to block septal window). Parameters for magnetization prepared rapid gradient echo (MPRAGE) (TR/TE=11/5.3 ms; Ti=1000 ms; FA=9 deg acquired matrix 108×108 mm over 55 slices, voxel 0.2×0.2×0.4 mm3 interpolated to 0.1×0.1×0.2 mm3). Mice are scanned dynamically for 45 min (early uptake) at 1 hour post administration, allowed to recover and scanned again at 4-6 hours post (late transport) for 60 min. DTI acquired as 4 shot echo planar image (EPI); TR/TE=4000/18 ms, 30 diffusion directions, multislice 2D, b=1000 s/mm2, FOV 19×19 mm, matrix size=128×128 with slice thickness=0.5 mm over 9 min. MicroPET: Metabolic brain activity is assessed using FDG-PET performed under isoflurane anesthesia with 30 min uptake after 250 μCi intraperitoneal injection of FDG. […]
as §3

For data set [7], the system named is glia fibrillary acidic protein (GFAP) expression. Description: GFAP immunostain of CA1 region of hippocampus (reactive astrocytes). Format: in vivo, 3×Tg-AD mice. The conditions noted are these: intranasal 0.6 mg/kg at 2 week intervals for 3 months; vs saline. How it is done:
Histology and Westerns. All confocal microscopy and immunohistochemistry are performed on perfusion fixed tissue prepared from animals that, immediately after euthanasia with pentobaritol (100 mg/kg), are perfused with saline followed by 4 percent paraformaldehyde/saline. For biochemical experiments (Western blots, etc.) other animals are perfused after death with saline and then the brains are rapidly dissected and flash frozen in liquid N2. Brain sections corresponding to the olfactory bulb are stained for Fluoro-Jade (1:1000, Histo-Chem Inc., AR, USA) as a marker of degenerating neurons and can be used to assess if 9 months of paclitaxel intranasal treatment may be neurotoxic. Glial fibrillary acidic protein (GFAP, 1:1500, Dako, Carpinteria, Calif.), an astroglial marker, and ionized calcium-binding adapter molecule 1 (Iba-1) (1:1000 Dako, Carpinteria, Calif.), a marker of microglial activation are processed using Avidin-Biotin procedure, which uses biotinylated secondary antibodies, avidin coupled to horse radish peroxidase (HRP) and reacted with 3,3′diaminobenzidine.
The application of paclitaxel to 3×Tg-AD mice (0.6 mg/kg at 2 week intervals for 3 months, intranasal administration) was investigated. It has been shown that microglia and astrocytes respond acutely to brain injury. […]

The test system of the next data set is spinal cord injury. The conditions noted are these: after spinal cord injury; cited from earlier work.

`C/C1=C/C[C@@H](/C(C)=C/c2csc(C)n2)OC(=O)C[C@H](O)C(C)(C)C(=O)[C@H](C)[C@@H](O)[C@@H](C)CCC1` [epothilone D]: in [1], the cognitive performance result was “improve cognitive performance” and the tau pathology result was “reduce associated tau pathology”.
On to `CC(=O)O[C@H]1C(=O)[C@@]2(C)[C@H]([C@H](OC(=O)c3ccccc3)[C@]3(O)C[C@H](OC(=O)[C@H](O)[C@@H](NC(=O)c4ccccc4)c4ccccc4)C(C)=C1C3(C)C)[C@]1(OC(C)=O)CO[C@@H]1C[C@@H]2O` [paclitaxel], for which, in data set [2], the “brain regions taking up taxane (FIG. 4A)” value is “taken up by the olfactory bulbs, the striatum, the hippocampus, the frontal cortex, the hypothalamus, and the cerebellum”; the “regional brain uptake level (second distribution graph)” value was “high striatum and hypothalamus uptake”. The injury volume in data set [3] (200 ug/kg applied to brain injury site immediately after CCI, MRI 2 days post-surgery, vs vehicle 9.96±2.3, p≦0.05) is on record as 7.94±1.5 mm^3. In [3] (200 ug/kg applied to brain injury site, 2 days post-surgery, vs vehicle 11.92±3.0, p≦0.05), the “hyperintense voxels (edema) on quantitative T2 maps” value was 8.86±2.2 mm^3. The “reduction of hyperintense voxels (edema)” value in data set [3] (200 ug/kg applied to brain injury site, vs vehicle) was 26%. Moreover, the “reduction in injury volume” value in [3] (200 ug/kg applied to brain injury site, vs vehicle, T2 and T1 images) turned out to be 20%. In addition, the “injury volume on T1-weighted MRI (in words)” value in [3] (paclitaxel versus saline treatment) is “indicating reduced injury”. In addition, in data set [4] (mn±sd, vs vehicle 8.95±0.3, p≦0.05), the “MPF bound percent, injury side” value is on record as 9.45±0.4. Besides, in data set [4] (vs vehicle), the “MPF bound percent, contralateral cortical area” value was “No difference” and the “increase of MPF bound percent on the injury side” value was determined as 6.6%. In data set [5] (2 days post-surgery, vs vehicle 0.29±0.08, p≦0.05), this compound showed a maximum print area of 0.38±0.09 cm^2. The mean intensity in [5] (2 days post-surgery, vs vehicle 66.38±5.52, p≦0.05) came out at 79.45±14.26. For the same compound, in data set [5] (right front (RF) and left hind (LF) only, vs vehicle), the “swing, decreased” value is 12%. In addition, in data set [5] (right hind (RH) only, vs vehicle), the “print length, increase” value is listed as 12%. Besides, the “gait parameters (in words)” value in data set [5] (short term, 8 days, paclitaxel over saline treated subjects) was “Improved gait parameters”. Also, in [5] (vs vehicle), the “maximum print area, increased” value is 22-52%; the “mean intensity, increased” value is recorded as 19-22%; the “print area, increased” value was 20-45%; the “print width, increased” value was 5-17%. In addition, in data set [6], the “underlying white matter integrity (FA values in external capsule)” value is “No significant improvement”. The axonal transport rates result with 3×Tg-AD mice is listed as “increased transport significantly; also recorded: Improved axonal transport rates; also recorded: relatively increased”. For the same compound, the axonal transport rates result with wild-type mice is given as “relatively increased”. In addition, the “GFAP expression / reactive astrocytes in CA1 region of hippocampus” value in data set [7] is given as “decreased evidence of activated astrocytes; also recorded: markedly reduced reactive astrocytes; also recorded: reduced GFAP expression levels; also recorded: showing reduced”. The axon regeneration entry in the data set on spinal cord injury is recorded as “facilitate axon regeneration”.
